Experimental data taken from PubChem BioAssay AID2060624 (Molecular Pharmacology Branch, DTP, NCI, 2025).

Tested on: 217524-143-R1-J4-PDC spheroids with HUVEC/MSC, viability
Experiment: Anticancer human tumor 217524-143-R1-J4-PDC patient-derived pancreatic carcinoma cell line growth inhibition [CLK]
Settings: for IC50: curve of first compound; for viability, T/C: stronger effect = lower value
Procedure, shortened: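 Multi-cell-type spheroids combined patient-derived tumor cells with HUVEC endothelial cells and human mesenchymal stem cells. Paired agents were dosed in half-log steps down from about clinical Cmax, or from 10 microM where Cmax was unknown.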

[1] = second compound 0.0316 µM, first compound 0.0316 µM
[2] = second compound 0.0316 µM, first compound 0.1 µM
[3] = second compound 0.0316 µM, first compound 0.316 µM
[4] = second compound 0.0316 µM, first compound 1 µM
[5] = second compound 0.0316 µM, first compound 3.16 µM
[6] = second compound 0.0316 µM, first compound 10 µM
[7] = second compound 0.1 µM, first compound 0.0316 µM
[8] = second compound 0.1 µM, first compound 0.1 µM
[9] = second compound 0.1 µM, first compound 0.316 µM
[10] = second compound 0.1 µM, first compound 1 µM
[11] = second compound 0.1 µM, first compound 3.16 µM
[12] = second compound 0.1 µM, first compound 10 µM
[13] = second compound 0.316 µM, first compound 0.0316 µM
[14] = second compound 0.316 µM, first compound 0.1 µM
[15] = second compound 0.316 µM, first compound 0.316 µM
[16] = second compound 0.316 µM, first compound 1 µM
[17] = second compound 0.316 µM, first compound 3.16 µM
[18] = second compound 0.316 µM, first compound 10 µM
[19] = second compound 1 µM, first compound 0.0316 µM
[20] = second compound 1 µM, first compound 0.1 µM
[21] = second compound 1 µM, first compound 0.316 µM
[22] = second compound 1 µM, first compound 1 µM
[23] = second compound 1 µM, first compound 3.16 µM
[24] = second compound 1 µM, first compound 10 µM
[25] = second compound 3.16 µM, first compound 0.0316 µM
[26] = second compound 3.16 µM, first compound 0.1 µM
[27] = second compound 3.16 µM, first compound 0.316 µM
[28] = second compound 3.16 µM, first compound 1 µM
[29] = second compound 3.16 µM, first compound 3.16 µM
[30] = second compound 3.16 µM, first compound 10 µM
[31] = second compound 10 µM, first compound 0.0316 µM
[32] = second compound 10 µM, first compound 0.1 µM
[33] = second compound 10 µM, first compound 0.316 µM
[34] = second compound 10 µM, first compound 1 µM
[35] = second compound 10 µM, first compound 3.16 µM
[36] = second compound 10 µM, first compound 10 µM
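Further: spheroids exposed to agents for seven days before reading.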
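Wherever viability, T/C is given: 100% = DMSO vehicle control viability.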

## COc1cccc2c1C(=O)c1c(O)c3c(c(O)c1C2=O)CC(O)(C(=O)CO)CC3OC1CC(N)C(O)C(C)O1 (stereo unspecified) + CN1CCN(c2cc(C(=O)Nc3cc4cc(-c5cnn(C)c5)ccc4cn3)ccn2)CC1
Second compound 0.0316 µM
  IC50: < 31.6 nM
Second compound 0.1 µM
  IC50: < 31.6 nM
Second compound 0.316 µM
  IC50: < 31.6 nM
Second compound 1 µM
  IC50: < 31.6 nM
Second compound 3.16 µM
  IC50: < 31.6 nM
Second compound 10 µM
  IC50: < 31.6 nM
[1]
  viability, T/C: 31.5%
[2]
  viability, T/C: 22.6%
[3]
  viability, T/C: 18.3%
[4]
  viability, T/C: 12.8%
[5]
  viability, T/C: 3.21%
[6]
  viability, T/C: 1.12%
[7]
  viability, T/C: 23.1%
[8]
  viability, T/C: 19.4%
[9]
  viability, T/C: 13.4%
[10]
  viability, T/C: 11.9%
[11]
  viability, T/C: 2.23%
[12]
  viability, T/C: 1.21%
[13]
  viability, T/C: 15.5%
[14]
  viability, T/C: 11.4%
[15]
  viability, T/C: 6.94%
[16]
  viability, T/C: 3.93%
[17]
  viability, T/C: 1.19%
[18]
  viability, T/C: 1.44%
[19]
  viability, T/C: 0.79%
[20]
  viability, T/C: 1.09%
[21]
  viability, T/C: 0.55%
[22]
  viability, T/C: 0.99%
[23]
  viability, T/C: 1.55%
[24]
  viability, T/C: 2.46%
[25]
  viability, T/C: 0.79%
[26]
  viability, T/C: 0.89%
[27]
  viability, T/C: 0.61%
[28]
  viability, T/C: 0.96%
[29]
  viability, T/C: 1.17%
[30]
  viability, T/C: 0.55%
[31]
  viability, T/C: 0.18%
[32]
  viability, T/C: 0.12%
[33]
  viability, T/C: 0.13%
[34]
  viability, T/C: 0.13%
[35]
  viability, T/C: 0.11%
[36]
  viability, T/C: 0.12%

## Nc1ccn(C2OC(CO)C(O)C2(F)F)c(=O)n1 (stereo unspecified) + CN1CCN(c2cc(C(=O)Nc3cc4cc(-c5cnn(C)c5)ccc4cn3)ccn2)CC1
Second compound 0.0316 µM
  IC50: 43.2 nM
Second compound 0.1 µM
  IC50: < 31.6 nM
Second compound 0.316 µM
  IC50: < 31.6 nM
Second compound 1 µM
  IC50: < 31.6 nM
Second compound 3.16 µM
  IC50: < 31.6 nM
Second compound 10 µM
  IC50: < 31.6 nM
[1]
  viability, T/C: 60.1%
[2]
  viability, T/C: 22.9%
[3]
  viability, T/C: 20.5%
[4]
  viability, T/C: 19.9%
[5]
  viability, T/C: 24.1%
[6]
  viability, T/C: 22.6%
[7]
  viability, T/C: 36%
[8]
  viability, T/C: 22.9%
[9]
  viability, T/C: 16.1%
[10]
  viability, T/C: 16.9%
[11]
  viability, T/C: 18.9%
[12]
  viability, T/C: 17.9%
[13]
  viability, T/C: 15.4%
[14]
  viability, T/C: 10.9%
[15]
  viability, T/C: 11.6%
[16]
  viability, T/C: 9.15%
[17]
  viability, T/C: 13.3%
[18]
  viability, T/C: 10.8%
[19]
  viability, T/C: 1.8%
[20]
  viability, T/C: 1.09%
[21]
  viability, T/C: 1.22%
[22]
  viability, T/C: 1.31%
[23]
  viability, T/C: 1.04%
[24]
  viability, T/C: 1.02%
[25]
  viability, T/C: 0.72%
[26]
  viability, T/C: 0.59%
[27]
  viability, T/C: 0.75%
[28]
  viability, T/C: 0.76%
[29]
  viability, T/C: 0.87%
[30]
  viability, T/C: 0.72%
[31]
  viability, T/C: 0.2%
[32]
  viability, T/C: 0.2%
[33]
  viability, T/C: 0.21%
[34]
  viability, T/C: 0.25%
[35]
  viability, T/C: 0.24%
[36]
  viability, T/C: 0.22%

## O=c1[nH]cc(F)c(=O)[nH]1 + CN1CCN(c2cc(C(=O)Nc3cc4cc(-c5cnn(C)c5)ccc4cn3)ccn2)CC1
Second compound 0.0316 µM
  IC50: 505 nM
Second compound 0.1 µM
  IC50: 196 nM
Second compound 0.316 µM
  IC50: < 31.6 nM
Second compound 1 µM
  IC50: < 31.6 nM
Second compound 3.16 µM
  IC50: < 31.6 nM
Second compound 10 µM
  IC50: < 31.6 nM
[1]
  viability, T/C: 78.1%
[2]
  viability, T/C: 74.9%
[3]
  viability, T/C: 46.5%
[4]
  viability, T/C: 49.6%
[5]
  viability, T/C: 30.2%
[6]
  viability, T/C: 28.1%
[7]
  viability, T/C: 59.5%
[8]
  viability, T/C: 57.5%
[9]
  viability, T/C: 45.2%
[10]
  viability, T/C: 32.4%
[11]
  viability, T/C: 29%
[12]
  viability, T/C: 21.7%
[13]
  viability, T/C: 21.9%
[14]
  viability, T/C: 23.4%
[15]
  viability, T/C: 21.2%
[16]
  viability, T/C: 16.1%
[17]
  viability, T/C: 15.7%
[18]
  viability, T/C: 13.4%
[19]
  viability, T/C: 1.26%
[20]
  viability, T/C: 1.5%
[21]
  viability, T/C: 1.42%
[22]
  viability, T/C: 1.31%
[23]
  viability, T/C: 1.3%
[24]
  viability, T/C: 1.65%
[25]
  viability, T/C: 0.71%
[26]
  viability, T/C: 0.91%
[27]
  viability, T/C: 0.78%
[28]
  viability, T/C: 0.61%
[29]
  viability, T/C: 0.63%
[30]
  viability, T/C: 0.59%
[31]
  viability, T/C: 0.15%
[32]
  viability, T/C: 0.14%
[33]
  viability, T/C: 0.15%
[34]
  viability, T/C: 0.13%
[35]
  viability, T/C: 0.18%
[36]
  viability, T/C: 0.19%
